From the supplement of paper PMC10307832

What was measured:
Test in all cases: relative viability (nuclei count vs DMSO), 5 days (fraction); higher = more cells survive
NCI-H647 = test system: NCI-H647
How it was run: (§1)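 One day after seeding in 1536-well plates, lung cancer cell lines were dosed by pin tool. Dosing was either single-drug or a fixed anchor-drug dose plus five library-drug doses (not always all listed) in √10 steps. After 5 days, nuclei were stained in one fix-and-stain step and counted on 4× images, and relative viability is the nuclei count of treated wells over that of vehicle wells, given as the median of duplicate plates.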

NCI-H1395 = test system: NCI-H1395
How it was run: as §1

LCLC-97TM1 = test system: LCLC-97TM1
How it was run: as §1

NCI-H838 = test system: NCI-H838
How it was run: as §1

NCI-H2085 = test system: NCI-H2085
How it was run: as §1

NCI-H322M = test system: NCI-H322M
How it was run: as §1

NCI-H2405 = test system: NCI-H2405
How it was run: as §1

201T = test system: 201T
How it was run: as §1

NCI-H661 = test system: NCI-H661
How it was run: as §1

NCI-H1355 = test system: NCI-H1355
How it was run: as §1

LU99A = test system: LU99A
How it was run: as §1

NCI-H650 = test system: NCI-H650
How it was run: as §1

NCI-H2009 = test system: NCI-H2009
How it was run: as §1

NCI-H23 = test system: NCI-H23
How it was run: as §1

NCI-H2228 = test system: NCI-H2228
How it was run: as §1

NCI-H2126 = test system: NCI-H2126
How it was run: as §1

HCC-78 = test system: HCC-78
How it was run: as §1

BEN = test system: BEN
How it was run: as §1

EPLC-272H = test system: EPLC-272H
How it was run: as §1

PC-14 = test system: PC-14
How it was run: as §1

HCC-15 = test system: HCC-15
How it was run: as §1

NCI-H460 = test system: NCI-H460
How it was run: as §1

## Cc1csc(=NC2CCCCC2)n1/N=C/c1ccc(O)c(O)c1O [MIM1] + CS(=O)(=O)N1CCN(Cc2cc3nc(-c4cccc5[nH]ncc45)nc(N4CCOCC4)c3s2)CC1 [Pictilisib] (partner 1 µM)
NCI-H647; first compound 0.2 µM
  relative viability: 0.379
NCI-H647; first compound 0.6325 µM
  relative viability: 0.578
NCI-H647; first compound 6.325 µM
  relative viability: 0.42
NCI-H647; first compound 20 µM
  relative viability: 0.191
NCI-H1395; first compound 0.2 µM
  relative viability: 0.666
NCI-H1395; first compound 0.6325 µM
  relative viability: 0.61
NCI-H1395; first compound 2 µM
  relative viability: 0.509
NCI-H1395; first compound 6.325 µM
  relative viability: 0.377
NCI-H1395; first compound 20 µM
  relative viability: 0.365
LCLC-97TM1; first compound 0.2 µM
  relative viability: 0.22
LCLC-97TM1; first compound 0.6325 µM
  relative viability: 0.178
LCLC-97TM1; first compound 2 µM
  relative viability: 0.228
LCLC-97TM1; first compound 6.325 µM
  relative viability: 0.18
LCLC-97TM1; first compound 20 µM
  relative viability: 0.108
NCI-H838; first compound 0.2 µM
  relative viability: 0.415
NCI-H838; first compound 0.6325 µM
  relative viability: 0.468
NCI-H838; first compound 2 µM
  relative viability: 0.397
NCI-H838; first compound 6.325 µM
  relative viability: 0.357
NCI-H838; first compound 20 µM
  relative viability: 0.2
NCI-H2085; first compound 0.2 µM
  relative viability: 0.441
NCI-H2085; first compound 0.6325 µM
  relative viability: 0.431
NCI-H2085; first compound 2 µM
  relative viability: 0.518
NCI-H2085; first compound 6.325 µM
  relative viability: 0.461
NCI-H2085; first compound 20 µM
  relative viability: 0.631
NCI-H322M; first compound 0.2 µM
  relative viability: 0.565
NCI-H322M; first compound 0.6325 µM
  relative viability: 0.497
NCI-H322M; first compound 2 µM
  relative viability: 0.511
NCI-H322M; first compound 6.325 µM
  relative viability: 0.477
NCI-H322M; first compound 20 µM
  relative viability: 0.698
NCI-H2405; first compound 0.2 µM
  relative viability: 0.431
NCI-H2405; first compound 0.6325 µM
  relative viability: 0.52
NCI-H2405; first compound 2 µM
  relative viability: 0.506
NCI-H2405; first compound 6.325 µM
  relative viability: 0.418
NCI-H2405; first compound 20 µM
  relative viability: 0.546
201T; first compound 0.2 µM
  relative viability: 0.688
201T; first compound 0.6325 µM
  relative viability: 0.659
201T; first compound 2 µM
  relative viability: 0.645
201T; first compound 6.325 µM
  relative viability: 0.654
201T; first compound 20 µM
  relative viability: 0.61
NCI-H661; first compound 0.2 µM
  relative viability: 0.388
NCI-H661; first compound 0.6325 µM
  relative viability: 0.367
NCI-H661; first compound 2 µM
  relative viability: 0.357
NCI-H661; first compound 6.325 µM
  relative viability: 0.38
NCI-H661; first compound 20 µM
  relative viability: 0.345
NCI-H1355; first compound 0.2 µM
  relative viability: 0.402
NCI-H1355; first compound 0.6325 µM
  relative viability: 0.392
NCI-H1355; first compound 2 µM
  relative viability: 0.435
NCI-H1355; first compound 6.325 µM
  relative viability: 0.376
NCI-H1355; first compound 20 µM
  relative viability: 0.234
LU99A; first compound 0.2 µM
  relative viability: 0.394
LU99A; first compound 0.6325 µM
  relative viability: 0.344
LU99A; first compound 2 µM
  relative viability: 0.303
LU99A; first compound 6.325 µM
  relative viability: 0.306
LU99A; first compound 20 µM
  relative viability: 0.233
NCI-H650; first compound 0.2 µM
  relative viability: 0.988
NCI-H650; first compound 0.6325 µM
  relative viability: 0.944
NCI-H650; first compound 2 µM
  relative viability: 0.987
NCI-H650; first compound 6.325 µM
  relative viability: 0.975
NCI-H650; first compound 20 µM
  relative viability: 0.505
NCI-H2009; first compound 0.2 µM
  relative viability: 0.931
NCI-H2009; first compound 0.6325 µM
  relative viability: 0.812
NCI-H2009; first compound 2 µM
  relative viability: 0.85
NCI-H2009; first compound 6.325 µM
  relative viability: 0.582
NCI-H2009; first compound 20 µM
  relative viability: 0.173
NCI-H23; first compound 0.2 µM
  relative viability: 0.563
NCI-H23; first compound 2 µM
  relative viability: 0.517
NCI-H23; first compound 6.325 µM
  relative viability: 0.467
NCI-H23; first compound 20 µM
  relative viability: 0.192
NCI-H2228; first compound 0.2 µM
  relative viability: 0.435
NCI-H2228; first compound 0.6325 µM
  relative viability: 0.316
NCI-H2228; first compound 2 µM
  relative viability: 0.4
NCI-H2228; first compound 6.325 µM
  relative viability: 0.244
NCI-H2228; first compound 20 µM
  relative viability: 0.158
NCI-H2126; first compound 0.2 µM
  relative viability: 0.516
NCI-H2126; first compound 0.6325 µM
  relative viability: 0.481
NCI-H2126; first compound 2 µM
  relative viability: 0.482
NCI-H2126; first compound 6.325 µM
  relative viability: 0.467
NCI-H2126; first compound 20 µM
  relative viability: 0.344
HCC-78; first compound 0.2 µM
  relative viability: 0.251
HCC-78; first compound 0.6325 µM
  relative viability: 0.23
HCC-78; first compound 2 µM
  relative viability: 0.228
HCC-78; first compound 6.325 µM
  relative viability: 0.34
HCC-78; first compound 20 µM
  relative viability: 0.185
BEN; first compound 0.2 µM
  relative viability: 0.607
BEN; first compound 0.6325 µM
  relative viability: 0.594
BEN; first compound 2 µM
  relative viability: 0.604
BEN; first compound 6.325 µM
  relative viability: 0.531
BEN; first compound 20 µM
  relative viability: 0.279
EPLC-272H; first compound 0.2 µM
  relative viability: 0.355
EPLC-272H; first compound 0.6325 µM
  relative viability: 0.339
EPLC-272H; first compound 2 µM
  relative viability: 0.334
EPLC-272H; first compound 6.325 µM
  relative viability: 0.3
EPLC-272H; first compound 20 µM
  relative viability: 0.235
PC-14; first compound 0.2 µM
  relative viability: 0.629
PC-14; first compound 0.6325 µM
  relative viability: 0.709
PC-14; first compound 2 µM
  relative viability: 0.628
PC-14; first compound 6.325 µM
  relative viability: 0.55
PC-14; first compound 20 µM
  relative viability: 0.488
HCC-15; first compound 0.2 µM
  relative viability: 0.872
HCC-15; first compound 0.6325 µM
  relative viability: 0.455
HCC-15; first compound 2 µM
  relative viability: 0.824
HCC-15; first compound 6.325 µM
  relative viability: 0.53
HCC-15; first compound 20 µM
  relative viability: 0.11
NCI-H460; first compound 0.2 µM
  relative viability: 0.315
NCI-H460; first compound 0.6325 µM
  relative viability: 0.348
NCI-H460; first compound 2 µM
  relative viability: 0.249
NCI-H460; first compound 6.325 µM
  relative viability: 0.329
NCI-H460; first compound 20 µM
  relative viability: 0.274
